Assay results reported in patent US6180624A (priority 1994, dated 2001).
Entries after “also recorded” stand apart in the source; their conditions may differ. Where two headings read alike, the source gives them in different places.

How the values were obtained:
[1] = test system: nociceptive spinal reflexes; assay: animal or person; type: in vivo, rabbit (male New Zealand white); conditions: for ED50: Oryctolagus cuniculus, iv; for Effect on baseline, facilitation and wind-up responses: all three measures, FIG. 1, 2, 4
Experimental: Male New Zealand white rabbits (2.5-3.5 kg) were anaesthetised by an injection of 0.9% alphaxalone and 0.3% alphadolone (Saffan) directly into an ear vein. A cervical spinalization was performed and the cerebral cortex removed (decerebration) allowing anaesthesia to be discontinued. The left hind limb was shaved and a bipolar recording electrode inserted into the biceps femoris/semitendinous muscle. A noxious stimulus was applied to the area of the receptive field of the motor units to the skin of the foot. Single shocks (1 ms square pulses; 2 times threshold) were applied at a rate of 1 per minute. The conditioning stimulus was 20 of these impulses at a rate of 1 Hz, producing wind-up. The baseline parameters were again applied 20 seconds following the conditioning stimulus, the first of these stimuli is termed the facilitation of the baseline response. Injections were administered at 15 minute intervals, the first two always being the relevant drug vehicle. The time-course of events throughout the experiment was as shown below:
t=0 mins: Dose with vehicle (i.v.).
t=40 sec: Begin baseline stimulation (1 per minute).
t=10 mins: Conditioning stimulus applied (20 @ 1 Hz; wind-up).
t=10 mins 40 secs: Baseline stimulation resumes (Initial baseline response equates to facilitation).
t=15 mins: Dose with vehicle (i.v.).
t=25 mins: Conditioning stimulus applied.
t=25 mins 40 secs: Baseline stimulation resumes.
t=30 mins: Dose with test compound (i.v.).
t=40 mins: Conditioning stimulus applied.
t=40 mins 40 secs: Baseline stimulation resumes.
t=45 mins and every 15 minutes thereafter: Drug treatment (i.v.).
t=55 mins and every 15 minutes thereafter: Conditioning stimulus applied.
40 seconds after each conditioning stimulus baseline stimulation is resumed.
In each experiment the values obtained to the second vehicle were used as the control response. Each of the values obtained with drug treatment was expressed as a percentage of the control response. In the case of changes in baseline the last four values obtained prior to the conditioning response were taken to represent baseline activity. The effect of drug treatment was determined by comparing the baseline post-drug to the control baseline. Four rabbits were used in each experiment unless otherwise stated.

morphine-induced emesis = conditions: ferrets; cited from earlier work
[2] = test system: phenylbenzoquinone-induced writhing; conditions: Garret et al.; cited from earlier work
formalin test = conditions: Garret et al.; cited from earlier work
[3] = baseline, i.v., decerebrate, spinalized rabbit, read-out: Approximate ID50, inhibition of baseline firing rate
[4] = facilitation, i.v., decerebrate, spinalized rabbit, read-out: Approximate ID50, inhibition of facilitation
[5] = wind-up, i.v., decerebrate, spinalized rabbit, read-out: Approximate ID50, inhibition of wind-up

SMILES: COc1ccccc1CN[C@H]1CCCN[C@H]1c1ccccc1 [CP-99,994]
- Facilitation of nociceptive spinal reflexes ([1]; CP-99,994 1-100 μg/kg i.v.): reduce facilitation of nociceptive spinal reflexes
- ED50 [1, 3]: 0.05 mg/kg
- ED50 [1, 4]: 0.008 mg/kg
- ED50 [1, 5]: 0.01 mg/kg
- Effect on baseline, facilitation and wind-up responses ([1]; i.v.): dose-dependent reduction in all three measures
- Antagonism of the anti-nociceptive effects of morphine by CP-99,994 ([1]; rabbit, in vivo): not antagonised
- Effect of CP-99,994 and morphine given together on the nociceptive reflex ([1]; rabbit, in vivo): appeared to be additive to those of morphine
- Emetic response to morphine (morphine-induced emesis): attenuate the emetic response to morphine

SMILES: COc1ccccc1CN[C@@H]1CCCN[C@@H]1c1ccccc1 [CP-100,263]
- ED50 [1, 3]: > 1 mg/kg
- ED50 [1, 4]: > 1 mg/kg
- ED50 [1, 5]: > 1 mg/kg
- Effect on baseline, facilitation and wind-up responses ([1]; i.v.): did not inhibit baseline, facilitation or wind-up responses; also recorded: lack of effect

SMILES: CN1CC[C@]23c4c5ccc(O)c4O[C@H]2[C@@H](O)C=C[C@H]3[C@H]1C5 [Morphine, morphine]
- Approximate ID50, inhibition of baseline firing rate ([1]; baseline, i.v., decerebrate, spinalized rabbit): 0.5 mg/kg
- Approximate ID50, inhibition of facilitation ([1]; facilitation, i.v., decerebrate, spinalized rabbit): 0.5 mg/kg
- Effect of morphine pre-treatment on CP-99,994 induced inhibition of each measure ([1]; morphine 0.5 mg/kg i.v. prior to CP-99,994 dose response curve, FIG. 3): failed to attenuate the CP-99,994 induced inhibition of each measure
- Approximate ID50, inhibition of wind-up ([1]; wind-up, i.v., decerebrate, spinalized rabbit): 0.5 mg/kg

SMILES: COc1ccccc1CC(=N)N1C[C@@H]2C(=O)CCC(c3ccccc3)(c3ccccc3)[C@@H]2C1 [RP 67,580]
- Analgesia potency relative to morphine, phenylbenzoquinone-induced writhing [2]: potency comparable to that of morphine
- Analgesia potency relative to morphine, formalin test (formalin test): potency comparable to that of morphine
